The test concerns T1, horseradish peroxidase (HRP).
T1 construct: gene PRXC1A
As to the kind of experiment: initial rate by absorbance at […] nm, Lineweaver-Burk. It counts as biochemical. The following applies: free enzyme; 1 mM H2O2, pH 7.0, 25 °C; HXT 0.5-5.0 mM.

SMILES strings stand for the structures.

As a reminder, the Km is the substrate concentration at which the rate is half of its maximum. With `OCCc1ccc(O)c(O)c1` [HXT, hydroxytyrosol], the Km amounted to 4.45 mM.

For the origin of these results see PMC12246728, “Efficient Oxidative Polymerization of Hydroxytyrosol Using Horseradish Peroxidase Immobilized on a Magnetic Silica‐Coated Nanocatalyst” (Global Challenges, 2025).
